Several values for one entry are separate records, joined by “and”; a condition that tells them apart may be missing. Equal entries are not always repeated. Where two headings read alike, the source gives them in different places.
Columns and labels:
CYP3A4 [1] = details: read-out: Ki (Ki,app); RLM; MDZ/1'-OH; ref [2] Brown et al., Drug Metab Dispos 2010; cited from earlier work
[2] = Intracellular unbound drug accumulation ratio (Kpuu) in suspended HH; format: in vitro ADME; details: human, human hepatocytes, pH partitioning theory, read-out: calculated cytosolic Kpuu (or Fcyto)
[3] = Steady-state cellular uptake (Kp) in suspended HH; format: in vitro ADME; details: human, suspended human hepatocytes; for Kp at 5 min, 0.5 μM: RO compounds, parameters matched to the IC50 assay
Protocol: The Kp in suspended HH was measured similarly to previous reports with some modifications ([7],[18]). Briefly, cells were rinsed twice with […] 10 mM HEPES. One hundred microliters of cell suspension (5 × 10^6 cells/mL) was added to a conical 96-well plate, and 100 μL of 1 μM drug solutions in Hank’s buffered salt solution (HBSS) buffered with 10 mM HEPES was added (resulting in a 0.5 μM final concentration). All incubations were performed in triplicates on up to three independent occasions. Full-time curves were established at 1, 3, 7.5, 15, 30, and 45 min to determine Kp at equilibrium. For single time point measurements, the incubation time was matched to the CYP inhibition assays. A sample of the medium was removed after centrifugation in a pre-cooled centrifuge at 4°C (100×g, 5 min), and ten-fold diluted with a mixture of acetonitrile and water (60:40) containing the internal standard for determination of Cmedium. The remaining supernatant was removed by aspiration and cells were washed twice with ice-cold buffer. The intracellular compound was extracted using the acetonitrile to water to internal standard mixture for determination of the amount of drug in the cells (Acell). Protein content (Pcell) was quantified using the BCA assay in representative wells to establish the cellular volume (Vcell), assuming 6.5 μL/mg protein ([23]). Finally, Kp was calculated using Eq. (2)2 Kp=Acell/Vcell∙Pcell/Cmedium

[4] = design: method as in Brown et al., Drug Metab Dispos 2010; details: rat liver microsomes; ref Brown et al., Drug Metab Dispos 2010; cited from earlier work
[5] = design: method as in Brown et al, DMD, 2010; details: rat hepatocytes; ref Brown et al, DMD, 2010; cited from earlier work
[6] = Fraction unbound to microsomes (fu,mic), equilibrium dialysis, HLM 0.2 mg/mL; details: both, human
[7] = design: method as in Brown et al, DMD, 2010; details: rat; calculated from Kilford et al. (2008); ref Brown et al, DMD, 2010; cited from earlier work
[8] = Kp and mass balance in HH in presence and absence of CYP inhibitor ABT; format: in vitro ADME, human; details: for mass balance: hepatocyte experiments, without ABT
Protocol: S 4 Kp in presence of metabolic inhibitor ABT
A batch of HH derived from a single donor and a pooled batch were each used to measure Kp at 45
minutes in presence and absence of the CYP inhibitor ABT.[1]
Time curves over 45 minutes were established in plated HH. […]

CYP3A4 [9] = test system: CYP3A4; design: method as in earlier work; details: RH; MDZ/1'-OH; ref [2] Brown et al., Drug Metab Dispos 2010; read-out: Ki (Ki,app); cited from earlier work
[10] = Intracellular unbound drug accumulation ratio (Kpuu) in suspended HH; format: in vitro ADME, human; details: for Kpuu / Kp uu: suspended HH; for Kpuu: Kp x fu,cell, reference compounds; for Kp uu: human, suspended human hepatocytes
Protocol: Kpuu was determined as previously described ([7],[18]) using Eq. (1):
1 Kpuu=Kp∙fu,cell/fu,medium where Kp is the steady-state cellular uptake, and fu,cell the fraction of unbound compound in the cell, determined as described below. The fraction unbound of the compound in the medium (fu,medium) was equal to 1 as no serum proteins or other drug binding components were added to the incubation media.

[11] = Fraction unbound in the cell (fu,cell), homogenization method/equilibrium dialysis; format: in vitro ADME, human; details: HH homogenate; for fraction unbound at 4 h, 0.5 μM / fraction unbound at 0.5 μM: human, human hepatocyte cell homogenate
[12] = Kpuu in rat hepatocytes derived from literature Kp; format: in vitro ADME; details: literature rat Kp x experimental (human) fu,cell
CYP1A2 [13] = molecular target: T1, CYP1A2 (Homo sapiens, UniProt P05177); experiment: CYP1A2 inhibition in suspended HH; format: cell-based; details: TCR/1'-OH, source [3] In house
T1 sequence (P05177 whole entry): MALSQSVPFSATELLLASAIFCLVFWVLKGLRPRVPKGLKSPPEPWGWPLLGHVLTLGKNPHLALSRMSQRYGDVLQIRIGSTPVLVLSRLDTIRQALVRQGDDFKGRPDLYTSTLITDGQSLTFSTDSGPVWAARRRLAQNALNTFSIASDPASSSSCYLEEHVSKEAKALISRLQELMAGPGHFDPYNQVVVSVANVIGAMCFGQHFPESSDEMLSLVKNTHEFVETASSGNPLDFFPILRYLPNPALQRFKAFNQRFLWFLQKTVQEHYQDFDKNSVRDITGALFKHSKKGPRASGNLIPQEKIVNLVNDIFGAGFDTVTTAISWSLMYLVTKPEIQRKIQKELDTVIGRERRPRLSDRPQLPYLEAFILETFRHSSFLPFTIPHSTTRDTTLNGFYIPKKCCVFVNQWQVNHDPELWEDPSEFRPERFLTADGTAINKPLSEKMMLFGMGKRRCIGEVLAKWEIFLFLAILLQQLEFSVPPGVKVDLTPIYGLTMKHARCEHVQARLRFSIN
Protocol: (§1) For HH, 50 μL of a suspension of cryopreserved HH (3 × 10^6 cells/mL) were added to a 96-well round bottom plate and pre-incubated for 20 min in Williams E medium (without FBS). Fifty microliters of a × 3 concentrated test compound-solution and 50 μL of × 3 concentrated substrate (diclofenac for CYP2C9, midazolam for CYP3A4 and tacrine for CYP1A2) were added and the plate was incubated on a shaker at 37°C, 5% CO2, and 900 rpm. Incubations were stopped after 5 min by transferring 100 μL of the suspension to a fresh plate and adding 100 μL of acetonitrile containing the internal standard and then analyzed as above.

CYP1A2 [14] = test system: CYP1A2; design: method as in earlier work; details: RH; TPH/1,3-DMU; ref [2] Brown et al., Drug Metab Dispos 2010; read-out: Ki (Ki,app); cited from earlier work
CYP1A2 [15] = test system: CYP1A2; design: method as in earlier work; details: RLM; TPH/1,3-DMU; ref [2] Brown et al., Drug Metab Dispos 2010; read-out: Ki (Ki,app); cited from earlier work
CYP1A2 [16] = molecular target: T1, CYP1A2; experiment: CYP1A2 inhibition in HLM; format: biochemical; details: average values from table S1; read-out: IC50,app HLM
CYP2C9 = CYP2C9 inhibition assay in HLM and HH (diclofenac); format: biochemical, human; details: diclofenac as substrate
Protocol: After the addition of 20 μL of 10 mM NADPH, the plate was incubated for 5 min. The reaction was stopped by adding 200 μL of acetonitrile containing an internal standard. After centrifugation of 10 min at 6200×g, the concentration of the substrate in the samples was determined by LC-MS (Sciex API4000, see S6 for LC-MS parameters).
as §1

pKa of RO compounds = format: physicochemical; details: method not stated
Source text: Table II Properties of the RO Discovery Compound Series and Results in HLM and Suspended HH | column: pKa

Papp of RO compounds = format: in vitro ADME; details: not told, method not stated
Source text: Table II Properties of the RO Discovery Compound Series and Results in HLM and Suspended HH | column: Papp (× 10^−6 cm/s)

[17] = cited from earlier work
[18] = azole series (itraconazole 24 h dialysis)

Compound	fraction unbound at 4 h, 0.5 μM ([6]; human liver microsomes)	Kp at 5 min, 0.5 μM [3]	pKa (pKa of RO compounds)	Kp uu ([10]; RO compounds)	fraction unbound at 4 h, 0.5 μM ([11]; RO compounds)	Papp (Papp of RO compounds) [×10⁻⁶ cm/s]	other results
CC[C@H]1OC(=O)[C@H](C)[C@@H](O[C@H]2C[C@@](C)(OC)[C@@H](O)[C@H](C)O2)[C@H](C)[C@@H](O[C@@H]2O[C@H](C)C[C@H](N(C)C)[C@H]2O)[C@](C)(OC)C[C@@H](C)C(=O)[C@H](C)[C@@H](O)[C@]1(C)O [Clarithromycin]	[…]	–	–	–	–	–	Ki (CYP3A4 [1]): […]; Kp uu [2]: 1.3; Kp at 0.5 μM ([3]; 0.5 μM, reference compounds): 25.9 ± 2.1; fu,mic [4]: 0.81; Kp [5]: 22; fu,cell [7]: 0.86; mass balance ([8]; suspended HH): […]; Ki (CYP3A4 [9]): […]; Kpuu [10]: […]; Kpuu ([10]; listed as clarithromycin): […]; fraction unbound at 4 h, 0.5 μM ([11]; 0.5 μM, reference compounds): […]; Kp uu [12]: 2.27 ± 0.28
CCn1cc(C(=O)O)c(=O)c2cc(F)c(N3CCNCC3)nc21 [Enoxacin]	0.53 ± 0.13	–	–	–	–	–	IC50 (CYP1A2 [13]): 422 ± 93 µM; Kp at 0.5 μM ([3]; 0.5 μM, reference compounds): 7.4 ± 1.1; fu,mic [4]: 0.99; Kp [5]: 20; Ki (CYP1A2 [14]): 120 ± 65 µM; Ki (CYP1A2 [15]): 2.8 ± 1.2 mM; fu,cell [7]: 0.99; mass balance ([8]; suspended HH): ~ 100%; fraction unbound at 4 h, 0.5 μM ([11]; 0.5 μM, reference compounds): 1; IC50 (CYP1A2 [16]): 2.14 ± 0.37 mM; Kp uu [12]: 20
CCC(C)n1ncn(-c2ccc(N3CCN(c4ccc(OCC5COC(Cn6cncn6)(c6ccc(Cl)cc6Cl)O5)cc4)CC3)cc2)c1=O (stereo not shown) [Itraconazole, reference compound]	–	–	–	–	–	–	Kp at 0.5 μM ([3]; azole series): 2720 ± 1570; fraction unbound at 0.5 μM ([6]; human liver microsomes): 0.21 ± 0.13; Kp uu ([10]; azole series): 7.5 ± 6.3; fu,cell [11, 18]: 0.003 ± 0.002
CC(=O)N1CCN(c2ccc(OCC3COC(Cn4ccnc4)(c4ccc(Cl)cc4Cl)O3)cc2)CC1 (stereo not shown) [Ketoconazole, reference compound]	–	–	–	–	–	–	fraction unbound at 0.5 μM ([6]; microsomes): 0.32 ± 0.12; fraction unbound at 0.5 μM [11, 18]: 0.004 ± 0.001
Cc1c(O)cccc1C(=O)N[C@@H](CSc1ccccc1)[C@H](O)CN1C[C@H]2CCCC[C@H]2C[C@H]1C(=O)NC(C)(C)C [Nelfinavir]	0.04 ± 0.02	–	–	–	–	–	Ki (CYP3A4 [1]): […]; fu,mic [4]: 0.022; Kp [5]: 3352; fu,cell [7]: 0.035; Kp in presence or absence of ABT ([8]; HH, 45 minutes): unaffected; change of mass balance upon addition of ABT ([8]; suspended HH, 45 minutes): approximately doubled; Ki (CYP3A4 [9]): […]; Kpuu with wash buffers at 4 and 37°C, with and without albumin ([10]; 45 minutes, except 4°C without albumin vs 37°C containing albumin): did not differ; fu,cell ([11]; 0.5 μM, reference compounds): 0.00025 ± 0.00005; fraction unbound at 4 h, 0.5 μM ([11]; 0.5 μM, reference compounds): 0.0002
CC[C@@H]([C@H](C)O)n1ncn(-c2ccc(N3CCN(c4ccc(OC[C@@H]5CO[C@@](Cn6cncn6)(c6ccc(F)cc6F)C5)cc4)CC3)cc2)c1=O [Posaconazole, reference compound]	–	–	–	–	–	–	Kp at 0.5 μM ([3]; azole series): 6930 ± 1240; fraction unbound at 0.5 μM ([6]; human liver microsomes): 0.21 ± 0.11; Kp uu ([10]; azole series): 37.6 ± 12.8; fraction unbound at 0.5 μM [11, 18]: 0.005 ± 0.003
Cc1cccc(S(=O)(=O)NC(=O)Nc2cc(Br)cc(N)n2)c1 [RO01]	0.42 ± 0.06	24 ± 2.2	5.41	0.357 ± 0.003	0.0149 ± 0.0003	10	difference of IC50,app between HH and HLM (CYP2C9): identical
Cc1cccc2cc(S(=O)(=O)NC(=O)Nc3ncc(Br)s3)sc12 [RO02]	0.36 ± 0.09	47.3 ± 1.1	3.14	0.0613 ± 0.0002	0.0013 ± 7e-05	2	–
COCc1oc(S(=O)(=O)NC(=O)Nc2ncc(Br)s2)cc1C [RO03]	0.41 ± 0.03	17.9 ± 8.9	2.91	0.3 ± 0.08	0.017 ± 0.001	9	difference of IC50,app between HH and HLM (CYP2C9): identical
COCc1oc(S(=O)(=O)NC(=O)Nc2nc(C)c(Br)s2)cc1C [RO04]	0.45 ± 0.11	27.6 ± 26.1	2.8	0.46 ± 0.65	0.02 ± 0.01	13	difference of IC50,app between HH and HLM (CYP2C9): identical
O=C(Nc1ncc(Br)s1)NS(=O)(=O)c1cc2cccc(Cl)c2s1 [RO05]	0.23 ± 0.02	18.5 ± 4.4	2.76	0.039 ± 0.003	0.0021 ± 0.0003	2	–
Cn1c(S(=O)(=O)NC(=O)Nc2ncc(Br)s2)cc2ccccc21 [RO06]	0.36 ± 0.11	61.6 ± 38.6	2.8	0.24 ± 0.1	0.0039 ± 0.0003	3	–
COc1cc(C)c(-c2sc(S(=O)(=O)NC(=O)Nc3ncc(Br)s3)cc2C)cn1 [RO07]	0.84 ± 0.06	41.9 ± 4.8	3.17	0.16 ± 0.01	0.00392 ± 3e-05	4	–
Cc1cccc(S(=O)(=O)NC(=O)Nc2snc(C)c2Br)c1 [RO08]	0.41 ± 0.09	22.2 ± 4.3	2.66	0.21 ± 0.05	0.009 ± 0.004	22	–
COCCc1sc(S(=O)(=O)NC(=O)Nc2snc(C)c2Br)cc1C [RO09]	0.97 ± 0.41	11.7 ± 2	2.49	0.088 ± 0.003	0.0075 ± 0.0006	2	difference of IC50,app between HH and HLM (CYP2C9): 12 fold
CO[C@H]1/C=C/O[C@@]2(C)Oc3c(C)c(O)c4c(O)c(c(/C=N/N5CCN(C)CC5)c(O)c4c3C2=O)NC(=O)/C(C)=C\C=C\[C@H](C)[C@H](O)[C@@H](C)[C@@H](O)[C@@H](C)[C@H](OC(C)=O)[C@@H]1C [rifampicin]	–	–	–	–	–	–	empirical hepatic uptake scalar [17]: 16.9
